This note sets out measurements from article PMC12814364 (Journal of the American Chemical Society, 2025).

For this experiment, the target named is HBHA110–199 (Mycobacterium tuberculosis, UniProt P9WIP9). The experiment can be described thus: ITC binding of HS hexadecasaccharides with HBHA110–199. As to conditions: for dissociation constant, KD / Kd: Tris buffer pH 7.6, 25 °C, two trials, average ± standard deviation; for n (sugar-to-protein binding ratio) / ΔG / ΔH / –TΔS: 25 °C, Tris buffer pH 7.6; for Kd: read-out: dissociation constant, KD.

Entries after “also recorded” stand apart in the source; their conditions may differ.

In general, Kd refers to a measure of binding affinity in units of concentration.

Sequence of HBHA110–199 (P9WIP9 110-199): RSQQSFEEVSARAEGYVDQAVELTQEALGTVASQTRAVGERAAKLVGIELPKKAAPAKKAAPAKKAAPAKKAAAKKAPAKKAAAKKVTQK

Consider `CC(=O)N[C@H]1[C@@H](O[C@H]2[C@H](O)[C@@H](OS(=O)(=O)O)[C@H]3OC[C@@H]2O3)O[C@H](CO)[C@@H](O[C@@H]2O[C@@H](C(=O)O)[C@@H](O[C@H]3O[C@H](CO)[C@@H](O[C@@H]4O[C@@H](C(=O)O)[C@@H](O[C@H]5O[C@H](CO)[C@@H](O[C@@H]6O[C@@H](C(=O)O)[C@@H](O[C@H]7O[C@H](CO)[C@@H](O[C@@H]8O[C@@H](C(=O)O)[C@@H](O[C@H]9O[C@H](CO)[C@@H](O[C@@H]%10O[C@@H](C(=O)O)[C@@H](O[C@H]%11O[C@H](CO)[C@@H](O[C@@H]%12O[C@@H](C(=O)O)[C@@H](O[C@H]%13O[C@H](CO)[C@@H](O[C@@H]%14O[C@@H](C(=O)O)[C@@H](O[C@H]%15O[C@H](CO)[C@@H](O)[C@H](O)[C@H]%15NC(C)=O)[C@H](O)[C@H]%14OS(=O)(=O)O)[C@H](O)[C@H]%13NC(C)=O)[C@H](O)[C@H]%12OS(=O)(=O)O)[C@H](O)[C@H]%11NC(C)=O)[C@H](O)[C@H]%10OS(=O)(=O)O)[C@H](O)[C@H]9NC(C)=O)[C@H](O)[C@H]8OS(=O)(=O)O)[C@H](O)[C@H]7NC(C)=O)[C@H](O)[C@H]6OS(=O)(=O)O)[C@H](O)[C@H]5NC(C)=O)[C@H](O)[C@H]4OS(=O)(=O)O)[C@H](O)[C@H]3NC(C)=O)[C@H](O)[C@H]2OS(=O)(=O)O)[C@@H]1O` [compound 26], for which the “dissociation constant, KD” value is “no detectable binding; also recorded: no binding detected”.
For `O=C(O)[C@@H]1O[C@@H](O[C@H]2[C@H](O)[C@@H](NS(=O)(=O)O)[C@@H](O[C@H]3[C@H](O)[C@@H](O)[C@H]4OC[C@@H]3O4)O[C@@H]2CO)[C@H](O)[C@@H](O)[C@@H]1O[C@H]1O[C@H](CO)[C@@H](O[C@@H]2O[C@@H](C(=O)O)[C@@H](O[C@H]3O[C@H](CO)[C@@H](O[C@@H]4O[C@@H](C(=O)O)[C@@H](O[C@H]5O[C@H](CO)[C@@H](O[C@@H]6O[C@@H](C(=O)O)[C@@H](O[C@H]7O[C@H](CO)[C@@H](O[C@@H]8O[C@@H](C(=O)O)[C@@H](O[C@H]9O[C@H](CO)[C@@H](O[C@@H]%10O[C@@H](C(=O)O)[C@@H](O[C@H]%11O[C@H](CO)[C@@H](O[C@@H]%12O[C@@H](C(=O)O)[C@@H](O[C@H]%13O[C@H](CO)[C@@H](O)[C@H](O)[C@H]%13NS(=O)(=O)O)[C@H](O)[C@H]%12O)[C@H](O)[C@H]%11NS(=O)(=O)O)[C@H](O)[C@H]%10O)[C@H](O)[C@H]9NS(=O)(=O)O)[C@H](O)[C@H]8O)[C@H](O)[C@H]7NS(=O)(=O)O)[C@H](O)[C@H]6O)[C@H](O)[C@H]5NS(=O)(=O)O)[C@H](O)[C@H]4O)[C@H](O)[C@H]3NS(=O)(=O)O)[C@H](O)[C@H]2O)[C@H](O)[C@H]1NS(=O)(=O)O` [compound 21], the “n (sugar-to-protein binding ratio)” value is 0.23 ± 0.10, the ΔG entry is on record as “–6.55 ± 0.06 kcal/mol”, the ΔH was determined as 7.76 ± 4.02 kcal/mol and the “–TΔS” value is listed as “–14.30 ± 3.96 kcal/mol”. The Kd came out at 16 ± 1.5 µM.
In the case of `O=C(O)[C@@H]1O[C@@H](O[C@H]2[C@H](O)[C@@H](NS(=O)(=O)O)[C@@H](O[C@H]3[C@H](O)[C@@H](O)[C@H]4OC[C@@H]3O4)O[C@@H]2COS(=O)(=O)O)[C@H](O)[C@@H](O)[C@@H]1O[C@H]1O[C@H](COS(=O)(=O)O)[C@@H](O[C@@H]2O[C@@H](C(=O)O)[C@@H](O[C@H]3O[C@H](COS(=O)(=O)O)[C@@H](O[C@@H]4O[C@@H](C(=O)O)[C@@H](O[C@H]5O[C@H](COS(=O)(=O)O)[C@@H](O[C@@H]6O[C@@H](C(=O)O)[C@@H](O[C@H]7O[C@H](COS(=O)(=O)O)[C@@H](O[C@@H]8O[C@@H](C(=O)O)[C@@H](O[C@H]9O[C@H](COS(=O)(=O)O)[C@@H](O[C@@H]%10O[C@@H](C(=O)O)[C@@H](O[C@H]%11O[C@H](COS(=O)(=O)O)[C@@H](O[C@@H]%12O[C@@H](C(=O)O)[C@@H](O[C@H]%13O[C@H](COS(=O)(=O)O)[C@@H](O)[C@H](O)[C@H]%13NS(=O)(=O)O)[C@H](O)[C@H]%12O)[C@H](O)[C@H]%11NS(=O)(=O)O)[C@H](O)[C@H]%10O)[C@H](O)[C@H]9NS(=O)(=O)O)[C@H](O)[C@H]8O)[C@H](O)[C@H]7NS(=O)(=O)O)[C@H](O)[C@H]6O)[C@H](O)[C@H]5NS(=O)(=O)O)[C@H](O)[C@H]4O)[C@H](O)[C@H]3NS(=O)(=O)O)[C@H](O)[C@H]2O)[C@H](O)[C@H]1NS(=O)(=O)O` [compound 32], the “n (sugar-to-protein binding ratio)” value was 0.30 ± 0.01, the ΔG result was “–7.69 ± 0.08 kcal/mol”, the ΔH is reported as 11.50 ± 0.28 kcal/mol and the “–TΔS” value is “–19.15 ± 0.21 kcal/mol”. Besides, the equilibrium dissociation constant (Kd) turned out to be 2.36 ± 0.3 µM.
With `CC(=O)N[C@H]1[C@@H](O[C@H]2[C@H](O)[C@@H](OS(=O)(=O)O)[C@H]3OC[C@@H]2O3)O[C@H](COS(=O)(=O)O)[C@@H](O[C@@H]2O[C@@H](C(=O)O)[C@@H](O[C@H]3O[C@H](COS(=O)(=O)O)[C@@H](O[C@@H]4O[C@@H](C(=O)O)[C@@H](O[C@H]5O[C@H](COS(=O)(=O)O)[C@@H](O[C@@H]6O[C@@H](C(=O)O)[C@@H](O[C@H]7O[C@H](COS(=O)(=O)O)[C@@H](O[C@@H]8O[C@@H](C(=O)O)[C@@H](O[C@H]9O[C@H](COS(=O)(=O)O)[C@@H](O[C@@H]%10O[C@@H](C(=O)O)[C@@H](O[C@H]%11O[C@H](COS(=O)(=O)O)[C@@H](O[C@@H]%12O[C@@H](C(=O)O)[C@@H](O[C@H]%13O[C@H](COS(=O)(=O)O)[C@@H](O[C@@H]%14O[C@@H](C(=O)O)[C@@H](O[C@H]%15O[C@H](COS(=O)(=O)O)[C@@H](O)[C@H](O)[C@H]%15NC(C)=O)[C@H](O)[C@H]%14OS(=O)(=O)O)[C@H](O)[C@H]%13NC(C)=O)[C@H](O)[C@H]%12OS(=O)(=O)O)[C@H](O)[C@H]%11NC(C)=O)[C@H](O)[C@H]%10OS(=O)(=O)O)[C@H](O)[C@H]9NC(C)=O)[C@H](O)[C@H]8OS(=O)(=O)O)[C@H](O)[C@H]7NC(C)=O)[C@H](O)[C@H]6OS(=O)(=O)O)[C@H](O)[C@H]5NC(C)=O)[C@H](O)[C@H]4OS(=O)(=O)O)[C@H](O)[C@H]3NC(C)=O)[C@H](O)[C@H]2OS(=O)(=O)O)[C@@H]1O` [compound 23], the “n (sugar-to-protein binding ratio)” value turned out to be 0.27 ± 0.01, the ΔG entry is on record as “–7.62 ± 0.02 kcal/mol”, the ΔH is 15.00 ± 0.00 kcal/mol and the “–TΔS” value is listed as “–22.60 ± 0.00 kcal/mol”. In addition, the dissociation constant Kd is 2.63 ± 0.11 µM.
Regarding `CC(=O)N[C@H]1[C@@H](O[C@H]2[C@H](O)[C@@H](O)[C@H]3OC[C@@H]2O3)O[C@H](COS(=O)(=O)O)[C@@H](O[C@@H]2O[C@@H](C(=O)O)[C@@H](O[C@H]3O[C@H](COS(=O)(=O)O)[C@@H](O[C@@H]4O[C@@H](C(=O)O)[C@@H](O[C@H]5O[C@H](COS(=O)(=O)O)[C@@H](O[C@@H]6O[C@@H](C(=O)O)[C@@H](O[C@H]7O[C@H](COS(=O)(=O)O)[C@@H](O[C@@H]8O[C@@H](C(=O)O)[C@@H](O[C@H]9O[C@H](COS(=O)(=O)O)[C@@H](O[C@@H]%10O[C@@H](C(=O)O)[C@@H](O[C@H]%11O[C@H](COS(=O)(=O)O)[C@@H](O[C@@H]%12O[C@@H](C(=O)O)[C@@H](O[C@H]%13O[C@H](COS(=O)(=O)O)[C@@H](O[C@@H]%14O[C@@H](C(=O)O)[C@@H](O[C@H]%15O[C@H](COS(=O)(=O)O)[C@@H](O)[C@H](O)[C@H]%15NC(C)=O)[C@H](O)[C@H]%14O)[C@H](O)[C@H]%13NC(C)=O)[C@H](O)[C@H]%12O)[C@H](O)[C@H]%11NC(C)=O)[C@H](O)[C@H]%10O)[C@H](O)[C@H]9NC(C)=O)[C@H](O)[C@H]8O)[C@H](O)[C@H]7NC(C)=O)[C@H](O)[C@H]6O)[C@H](O)[C@H]5NC(C)=O)[C@H](O)[C@H]4O)[C@H](O)[C@H]3NC(C)=O)[C@H](O)[C@H]2O)[C@@H]1O` [compound 31], the “dissociation constant, KD” value is given as “no detectable binding; also recorded: no binding detected”.
For `O=C(O)[C@@H]1O[C@@H](O[C@H]2[C@H](O)[C@@H](NS(=O)(=O)O)[C@@H](O[C@H]3[C@H](O)[C@@H](OS(=O)(=O)O)[C@H]4OC[C@@H]3O4)O[C@@H]2CO)[C@H](OS(=O)(=O)O)[C@@H](O)[C@@H]1O[C@H]1O[C@H](CO)[C@@H](O[C@@H]2O[C@@H](C(=O)O)[C@@H](O[C@H]3O[C@H](CO)[C@@H](O[C@@H]4O[C@@H](C(=O)O)[C@@H](O[C@H]5O[C@H](CO)[C@@H](O[C@@H]6O[C@@H](C(=O)O)[C@@H](O[C@H]7O[C@H](CO)[C@@H](O[C@@H]8O[C@@H](C(=O)O)[C@@H](O[C@H]9O[C@H](CO)[C@@H](O[C@@H]%10O[C@@H](C(=O)O)[C@@H](O[C@H]%11O[C@H](CO)[C@@H](O[C@@H]%12O[C@@H](C(=O)O)[C@@H](O[C@H]%13O[C@H](CO)[C@@H](O)[C@H](O)[C@H]%13NS(=O)(=O)O)[C@H](O)[C@H]%12OS(=O)(=O)O)[C@H](O)[C@H]%11NS(=O)(=O)O)[C@H](O)[C@H]%10OS(=O)(=O)O)[C@H](O)[C@H]9NS(=O)(=O)O)[C@H](O)[C@H]8OS(=O)(=O)O)[C@H](O)[C@H]7NS(=O)(=O)O)[C@H](O)[C@H]6OS(=O)(=O)O)[C@H](O)[C@H]5NS(=O)(=O)O)[C@H](O)[C@H]4OS(=O)(=O)O)[C@H](O)[C@H]3NS(=O)(=O)O)[C@H](O)[C@H]2OS(=O)(=O)O)[C@H](O)[C@H]1NS(=O)(=O)O` [compound 27], the “dissociation constant, KD” value is “no detectable binding; also recorded: no binding detected”.
